The text below walks through data of article PMC10385850, “Modified Hederagenin Derivatives Demonstrate Ex Vivo Anthelmintic Activity against Fasciola hepatica” (Pharmaceutics, 2023).

The structures appear in SMILES notation.

The test system of series [1] is F. hepatica newly excysted juveniles (NEJs), Italian strain. As to the kind of experiment: Ex vivo screen against newly excysted juveniles (NEJs), phenotype and motility scoring. In kind it is cell-based, Fasciola hepatica. The settings on record: 10 µM. Put shortly: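 Newly excysted juveniles of the Italian strain of F. hepatica were obtained by excysting metacercariae and exposed ex vivo to test compounds at 10 μM final concentration in 0.1% DMSO. Controls were 0.1% DMSO (negative) and 10 μM TCBZ in 0.1% DMSO (positive). Motility was scored from 1 (good/normal) to 5 (no movement), and ultrastructural phenotype changes were scored with an established matrix.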

Series [2] deals with immature F. hepatica flukes (Italian strain). As to the kind of experiment: Ex vivo motility assay on immature liver flukes (Italian strain), single concentration and dose response. In kind it is cell-based, Fasciola hepatica. The settings on record: 40 µM.
In series [3] the test system is wild strain adult F. hepatica. As to the kind of experiment: Ex vivo motility assay on adult liver flukes (wild strain). The class given is cell-based, Fasciola hepatica. The settings on record: 40 µM. Put shortly: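 Wild-strain adult F. hepatica of unknown provenance (n = 4 per condition) were exposed ex vivo to 40 µM compound in 0.4% DMSO for 72 h. Motility was scored from 1 (normal) to 6 (no movement/dead).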

The test system of series [4] is adult F. hepatica flukes (Italian strain). Description: Ex vivo dose response motility assay on adult liver flukes (Italian strain). The class given is cell-based, Fasciola hepatica. Here is the method: The collection, ex vivo culturing and screening of adult liver fluke (Italian strain; n = 3/condition) was previously described. Dose response assays (40 µM, 13.3 µM and 4.4 µM) were conducted for MC014, MC042, MC035, MC055 and MC062 with motility scores recorded at 24, 48 and 72 h (Table S6).

Series [5] can be described thus: MTT cell viability assay on MDBK cells. In kind it is cell-based, bovine. The settings on record: bovine, MDBK cells (Madin–Darby bovine kidney); MDBK cells, MTT, 24 h exposure; read-out: CC50 with 95% CI on MDBK cells (cytotoxicity). Here is the method:
MTT cell viability assays were performed on Madin–Darby bovine kidney (MDBK cells) for the five selected hederagenin derivatives (MC014, MC035, MC042, MC055 and MC062) using final concentrations of 100 μM, 75 μM, 50 μM, 25 μM, 10 μM, 5 μM and 1 μM (in 1% DMSO). Negative (1% v/v Triton X-100, Sigma-Aldrich, UK) and positive (1% v/v DMSO or media only) controls were included. The protocol was followed as previously described. Absolute EC50 values were calculated from the corrected absorbance of replicates by non-linear regression, after log transformation of concentrations and data normalization (where DMSO values represents 0% inhibition and TX-100 values represent 100% inhibition) using GrapPad Prism 8.

Series [6] concerns F. hepatica. Further details: method as in PMID 4034744. Conditions: cited from earlier work.

Regarding `CN1CCN(C(=O)N[C@]23CCC(C)(C)CC2C2=CCC4[C@@]5(C)CC[C@@H]6OC(C)(C)OC[C@@]6(C)C5CC[C@@]4(C)[C@]2(C)CC3)CC1` (stereo partly drawn) [MC062, 4-Methyl-N-((4aR,6aR,6bS,8aS,14bR,16aS)-2,2,4a,6a,6b,11,11,14b-octamethyl-4a,5,6,6a, 6b,7,8,9,10,11, 12,12a,14,14a,14b,15,16,16a-octadecahydro-4H-piceno[3,4-d][1,3]dioxin-8a(4bH)-yl)piperazine-1-carboxamide], in series [1] (24 h, ultrastructure score 1 normal to 6 dead or dissolved), the “Average phenotype of 25 NEJs with 95% CI, 24 hours” value is listed as 6.00 (6.0;6.0). In series [1] (48 h, ultrastructure score 1 normal to 6 dead or dissolved), the “Average phenotype of 25 NEJs with 95% CI, 48 hours” value is reported as 6.00 (6.0;6.0). The “Average phenotype of 25 NEJs with 95% CI, 72 hours” value in series [1] (72 h, ultrastructure score 1 normal to 6 dead or dissolved) was 6.00 (6.0;6.0). The “Activity against NEJs (first screen), in words” value in series [1] (72 h co-culture) is “maximal alterations to both phenotype/ultrastructure and motility”. Besides, the “Average motility of 4 parasites with 95% CI at 24 hour time point” value in series [2] (24 h, immature flukes, score 1 normal to 5 no movement or death) was 5.00 (5.0;5.0). Also, the “Average motility of 4 parasites with 95% CI at 48 hour time point” value in series [2] (48 h, immature flukes, score 1 to 5) is 5.00 (5.0;5.0). Also, the “Average motility of 4 parasites with 95% CI at 72 hour time point” value in series [2] (72 h, immature flukes, score 1 to 5) was 5.00 (5.0;5.0); in series [3] (wild strain adult flukes, score 1 good/normal to 6 no movement or dead), 5.00 (5.0;5.0). In series [2] (by 72 h), the “Effect on immature fluke motility, in words” value is listed as “paralyzed the assayed immature flukes”. For the same compound, the “Effect on wild strain adult fluke motility, in words” value in series [3] (72 h) is recorded as “partial paralysis”. Further, the “Average motility of 3 parasites treated with 4.4 µM, 24 hours” value in series [4] (4.4 µM, 24 h, adult flukes Italian strain, score 1 to 6) was 1.00 (1.0; 1.0). The “Average motility of 3 parasites treated with 4.4 µM, 48 hours” value in series [4] (4.4 µM, 48 h, adult flukes Italian strain, score 1 to 6) is listed as 1.00 (1.0; 1.0). In addition, the “Average motility of 3 parasites treated with 13.3 µM, 24 hours” value in series [4] (13.3 µM, 24 h, adult flukes Italian strain, score 1 to 6) is 1.00 (1.0; 1.0). Also, the “Average motility of 3 parasites treated with 13.3 µM, 48 hours” value in series [4] (13.3 µM, 48 h, adult flukes Italian strain, score 1 to 6) is recorded as 1.66 (1.0; 2.3). For the same compound, the “Average motility of 3 parasites treated with 13.3 µM, 72 hours” value in series [4] (13.3 µM, 72 h, adult flukes Italian strain, score 1 to 6) is 5.00 (5.0; 5.0). For the same compound, in series [4] (40 µM, 24 h, adult flukes Italian strain, score 1 to 6), the “Average motility of 3 parasites treated with 40 µM, 24 hours” value is on record as 3.00 (3.0;3.0). Also, the “Average motility of 3 parasites treated with 40 µM, 48 hours” value in series [4] (40 µM, 48 h, adult flukes Italian strain, score 1 to 6) is given as 4.00 (4.0;4.0). Besides, the “Average motility of 3 parasites treated with 40 µM, 72 hours” value in series [4] (40 µM, 72 h, adult flukes Italian strain, score 1 to 6) was 5.00 (5.0;5.0). Moreover, in series [4] (CC50 in MDBK cells (24 h) / EC50 adult flukes 72 h), the “Selectivity Index (SI) on Adult Flukes SI=CC50/EC50, 72 hour” value was 2.43. Besides, the concentration giving a half-maximal response (EC50) in series [4] (Fasciola hepatica, adult flukes, motility, 72 h, read-out: EC50 with 95% CI on Adult Flukes (motility), 72 hour) worked out at 5.61 µM. The “Effect on adult fluke (Italian strain) movement, in words” value in series [4] (dose response, MC042 statement at 40 μM after 72 h) is “Decreased movement”. In series [5], the CC50 at 24 h amounted to 13.7 µM.

Take `C[C@@H]1O[C@@H](O[C@H]2[C@H](O[C@H]3CC[C@@]4(C)[C@@H](CC[C@]5(C)[C@@H]4CC=C4[C@@H]6CC(C)(C)CC[C@]6(C(=O)O)CC[C@]45C)[C@]3(C)CO)OC[C@H](O)[C@@H]2O)[C@H](O)[C@H](O)[C@H]1O` [α-Hederin]: the “Activity against F. hepatica, in words” value in series [6] is “lethal activity”.
